Laboratory results as given in publication PMC10176470, “Engaging a Non-catalytic Cysteine Residue Drives Potent and Selective Inhibition of Caspase-6” (Journal of the American Chemical Society, 2023).

How the values were obtained:
Assay type in all cases: cell-based
[1] = target: T1, proteins of HEK293T cells transiently overexpressing caspase-6 (Homo sapiens, UniProt Q13162)
T1 sequence (Q13162 38-271): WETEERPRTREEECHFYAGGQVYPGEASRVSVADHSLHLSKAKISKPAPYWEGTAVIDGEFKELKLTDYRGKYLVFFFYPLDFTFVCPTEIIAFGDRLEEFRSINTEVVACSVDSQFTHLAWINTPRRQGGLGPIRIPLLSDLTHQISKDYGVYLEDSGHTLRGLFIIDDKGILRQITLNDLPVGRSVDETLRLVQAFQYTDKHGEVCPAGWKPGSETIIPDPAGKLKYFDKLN

[2] = target: proteins of HEK293T cells transiently overexpressing caspase-6 (Homo sapiens, UniProt P62937); conditions: exp_ref Probe; protein PPIA (P62937); analysis C6
proteins of HEK293T cells transiently overexpressing caspase-6 (Homo sapiens, UniProt P62937), sequence (P62937 whole entry): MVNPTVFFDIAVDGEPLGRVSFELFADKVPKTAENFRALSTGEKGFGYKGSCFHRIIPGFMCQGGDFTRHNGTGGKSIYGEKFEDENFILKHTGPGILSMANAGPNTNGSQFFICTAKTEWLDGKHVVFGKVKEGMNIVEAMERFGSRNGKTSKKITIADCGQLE

[3] = target: proteins of HEK293T cells transiently overexpressing caspase-6 (Homo sapiens, UniProt P27348); conditions: exp_ref Probe; protein YWHAQ (P27348); analysis C6
proteins of HEK293T cells transiently overexpressing caspase-6 (Homo sapiens, UniProt P27348), sequence (P27348 whole entry): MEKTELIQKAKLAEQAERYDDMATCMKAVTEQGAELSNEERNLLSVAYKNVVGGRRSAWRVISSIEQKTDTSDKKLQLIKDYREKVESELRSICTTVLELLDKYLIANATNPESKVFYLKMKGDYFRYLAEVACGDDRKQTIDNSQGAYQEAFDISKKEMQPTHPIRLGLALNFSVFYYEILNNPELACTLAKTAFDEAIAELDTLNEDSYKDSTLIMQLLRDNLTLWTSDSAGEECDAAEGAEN

[4] = target: T2, proteins of HEK293T cells transiently overexpressing caspase-6 (Homo sapiens, UniProt P09622)
T2 sequence (P09622 36-509): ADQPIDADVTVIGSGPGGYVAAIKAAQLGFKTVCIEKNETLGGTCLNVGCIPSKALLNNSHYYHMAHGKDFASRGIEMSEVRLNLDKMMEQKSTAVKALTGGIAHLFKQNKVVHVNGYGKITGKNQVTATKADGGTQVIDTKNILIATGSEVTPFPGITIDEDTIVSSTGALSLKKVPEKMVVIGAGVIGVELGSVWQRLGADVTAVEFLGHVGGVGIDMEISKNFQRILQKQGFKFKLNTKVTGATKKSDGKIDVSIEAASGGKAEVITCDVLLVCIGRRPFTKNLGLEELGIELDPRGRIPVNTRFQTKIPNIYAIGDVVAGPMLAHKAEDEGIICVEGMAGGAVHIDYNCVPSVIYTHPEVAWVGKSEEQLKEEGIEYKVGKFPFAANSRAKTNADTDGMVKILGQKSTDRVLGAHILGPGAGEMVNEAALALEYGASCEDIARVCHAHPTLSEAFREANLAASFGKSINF

[5] = target: proteins of HEK293T cells transiently overexpressing caspase-6 (Homo sapiens, UniProt P00492); conditions: Probe; protein HPRT1 P00492
proteins of HEK293T cells transiently overexpressing caspase-6 (Homo sapiens, UniProt P00492), sequence (P00492 whole entry): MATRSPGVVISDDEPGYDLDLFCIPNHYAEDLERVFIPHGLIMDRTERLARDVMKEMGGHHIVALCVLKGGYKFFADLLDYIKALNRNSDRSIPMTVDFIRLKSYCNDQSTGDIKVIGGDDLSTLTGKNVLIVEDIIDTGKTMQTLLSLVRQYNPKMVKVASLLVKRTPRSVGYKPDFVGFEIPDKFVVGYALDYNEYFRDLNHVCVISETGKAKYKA

[6] = target: proteins of HEK293T cells transiently overexpressing caspase-6 (Homo sapiens, UniProt P43034); conditions: Probe; protein PAFAH1B1 P43034
proteins of HEK293T cells transiently overexpressing caspase-6 (Homo sapiens, UniProt P43034), sequence (P43034 whole entry): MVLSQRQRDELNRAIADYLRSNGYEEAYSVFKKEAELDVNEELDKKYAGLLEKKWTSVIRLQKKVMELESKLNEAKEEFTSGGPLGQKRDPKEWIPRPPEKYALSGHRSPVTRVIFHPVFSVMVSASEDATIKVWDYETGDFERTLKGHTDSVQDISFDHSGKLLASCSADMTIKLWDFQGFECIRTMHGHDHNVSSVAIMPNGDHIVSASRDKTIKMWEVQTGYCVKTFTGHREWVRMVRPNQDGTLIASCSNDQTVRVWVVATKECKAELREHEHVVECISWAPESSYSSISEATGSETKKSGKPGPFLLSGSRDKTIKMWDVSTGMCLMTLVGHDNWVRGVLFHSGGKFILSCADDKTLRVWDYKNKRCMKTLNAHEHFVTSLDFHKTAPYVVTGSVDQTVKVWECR

[7] = target: proteins of HEK293T cells transiently overexpressing caspase-6 (Homo sapiens, UniProt P62701); conditions: exp_ref Probe; protein RPS4X (P62701); analysis C6
[8] = target: proteins of HEK293T cells transiently overexpressing caspase-6 (Homo sapiens, UniProt P13647); conditions: Probe; protein KRT5 P13647
proteins of HEK293T cells transiently overexpressing caspase-6 (Homo sapiens, UniProt P13647), sequence (P13647 whole entry): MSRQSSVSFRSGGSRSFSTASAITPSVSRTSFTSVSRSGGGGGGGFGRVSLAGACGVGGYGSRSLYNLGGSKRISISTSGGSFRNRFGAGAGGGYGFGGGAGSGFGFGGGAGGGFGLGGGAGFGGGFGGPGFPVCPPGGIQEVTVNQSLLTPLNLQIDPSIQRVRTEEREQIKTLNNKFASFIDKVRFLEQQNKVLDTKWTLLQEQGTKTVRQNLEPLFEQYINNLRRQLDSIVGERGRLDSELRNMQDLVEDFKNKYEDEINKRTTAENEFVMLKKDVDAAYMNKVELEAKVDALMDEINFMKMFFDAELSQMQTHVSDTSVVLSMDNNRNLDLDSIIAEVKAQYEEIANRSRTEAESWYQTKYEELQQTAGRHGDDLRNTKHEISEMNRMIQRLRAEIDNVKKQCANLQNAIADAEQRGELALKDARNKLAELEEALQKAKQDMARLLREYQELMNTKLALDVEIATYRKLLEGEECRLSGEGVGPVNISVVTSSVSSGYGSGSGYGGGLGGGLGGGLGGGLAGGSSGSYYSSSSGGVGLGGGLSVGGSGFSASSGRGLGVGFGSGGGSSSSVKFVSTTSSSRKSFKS

[9] = target: T3, proteins of HEK293T cells transiently overexpressing caspase-6 (Homo sapiens, UniProt Q92945); conditions: protein KHSRP (Q92945)
T3 sequence (Q92945 1-711): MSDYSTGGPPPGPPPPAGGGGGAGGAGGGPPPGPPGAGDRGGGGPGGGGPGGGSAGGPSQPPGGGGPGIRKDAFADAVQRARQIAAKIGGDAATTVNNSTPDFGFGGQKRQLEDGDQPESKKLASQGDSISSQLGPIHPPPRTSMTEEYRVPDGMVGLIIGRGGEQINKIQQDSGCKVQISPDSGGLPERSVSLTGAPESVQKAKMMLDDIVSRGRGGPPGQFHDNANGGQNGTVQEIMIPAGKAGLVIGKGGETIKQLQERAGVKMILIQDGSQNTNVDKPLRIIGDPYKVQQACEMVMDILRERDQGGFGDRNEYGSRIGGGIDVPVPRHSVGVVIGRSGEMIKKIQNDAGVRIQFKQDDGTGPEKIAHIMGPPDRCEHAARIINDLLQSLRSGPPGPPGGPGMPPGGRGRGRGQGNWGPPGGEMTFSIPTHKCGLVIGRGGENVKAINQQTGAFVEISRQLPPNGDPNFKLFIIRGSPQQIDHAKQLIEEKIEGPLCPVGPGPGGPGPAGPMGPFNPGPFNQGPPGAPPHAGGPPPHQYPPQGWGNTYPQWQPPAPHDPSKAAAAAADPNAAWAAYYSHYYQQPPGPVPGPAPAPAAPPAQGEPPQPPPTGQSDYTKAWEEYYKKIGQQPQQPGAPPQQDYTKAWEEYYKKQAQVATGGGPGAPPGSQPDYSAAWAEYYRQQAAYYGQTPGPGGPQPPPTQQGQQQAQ

[10] = target: proteins of HEK293T cells transiently overexpressing caspase-6 (Homo sapiens, UniProt P29692); conditions: exp_ref Probe; protein EEF1D (P29692); analysis C6
[11] = target: proteins of HEK293T cells transiently overexpressing caspase-6 (Homo sapiens, UniProt P31948)
proteins of HEK293T cells transiently overexpressing caspase-6 (Homo sapiens, UniProt P31948), sequence (P31948 whole entry): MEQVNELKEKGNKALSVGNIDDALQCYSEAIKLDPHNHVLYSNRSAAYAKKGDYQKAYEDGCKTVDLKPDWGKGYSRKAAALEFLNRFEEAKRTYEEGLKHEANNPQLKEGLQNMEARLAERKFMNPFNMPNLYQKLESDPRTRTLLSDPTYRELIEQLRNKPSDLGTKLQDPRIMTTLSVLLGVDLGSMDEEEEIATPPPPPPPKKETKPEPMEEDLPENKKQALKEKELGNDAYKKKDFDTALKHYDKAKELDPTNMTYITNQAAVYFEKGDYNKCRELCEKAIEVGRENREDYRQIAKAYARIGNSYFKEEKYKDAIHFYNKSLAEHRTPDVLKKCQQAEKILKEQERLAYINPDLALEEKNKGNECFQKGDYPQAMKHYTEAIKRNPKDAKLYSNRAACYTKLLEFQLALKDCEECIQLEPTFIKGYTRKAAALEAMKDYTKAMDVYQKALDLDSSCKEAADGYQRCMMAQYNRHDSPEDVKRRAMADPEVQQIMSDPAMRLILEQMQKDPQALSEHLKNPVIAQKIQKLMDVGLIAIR

[12] = target: proteins of HEK293T cells transiently overexpressing caspase-6 (Homo sapiens, UniProt P49736); conditions: Probe; protein MCM2 P49736
[13] = target: proteins of HEK293T cells transiently overexpressing caspase-6 (Homo sapiens, UniProt Q14157); conditions: Probe; protein UBAP2L Q14157
proteins of HEK293T cells transiently overexpressing caspase-6 (Homo sapiens, UniProt Q14157), sequence (Q14157 whole entry): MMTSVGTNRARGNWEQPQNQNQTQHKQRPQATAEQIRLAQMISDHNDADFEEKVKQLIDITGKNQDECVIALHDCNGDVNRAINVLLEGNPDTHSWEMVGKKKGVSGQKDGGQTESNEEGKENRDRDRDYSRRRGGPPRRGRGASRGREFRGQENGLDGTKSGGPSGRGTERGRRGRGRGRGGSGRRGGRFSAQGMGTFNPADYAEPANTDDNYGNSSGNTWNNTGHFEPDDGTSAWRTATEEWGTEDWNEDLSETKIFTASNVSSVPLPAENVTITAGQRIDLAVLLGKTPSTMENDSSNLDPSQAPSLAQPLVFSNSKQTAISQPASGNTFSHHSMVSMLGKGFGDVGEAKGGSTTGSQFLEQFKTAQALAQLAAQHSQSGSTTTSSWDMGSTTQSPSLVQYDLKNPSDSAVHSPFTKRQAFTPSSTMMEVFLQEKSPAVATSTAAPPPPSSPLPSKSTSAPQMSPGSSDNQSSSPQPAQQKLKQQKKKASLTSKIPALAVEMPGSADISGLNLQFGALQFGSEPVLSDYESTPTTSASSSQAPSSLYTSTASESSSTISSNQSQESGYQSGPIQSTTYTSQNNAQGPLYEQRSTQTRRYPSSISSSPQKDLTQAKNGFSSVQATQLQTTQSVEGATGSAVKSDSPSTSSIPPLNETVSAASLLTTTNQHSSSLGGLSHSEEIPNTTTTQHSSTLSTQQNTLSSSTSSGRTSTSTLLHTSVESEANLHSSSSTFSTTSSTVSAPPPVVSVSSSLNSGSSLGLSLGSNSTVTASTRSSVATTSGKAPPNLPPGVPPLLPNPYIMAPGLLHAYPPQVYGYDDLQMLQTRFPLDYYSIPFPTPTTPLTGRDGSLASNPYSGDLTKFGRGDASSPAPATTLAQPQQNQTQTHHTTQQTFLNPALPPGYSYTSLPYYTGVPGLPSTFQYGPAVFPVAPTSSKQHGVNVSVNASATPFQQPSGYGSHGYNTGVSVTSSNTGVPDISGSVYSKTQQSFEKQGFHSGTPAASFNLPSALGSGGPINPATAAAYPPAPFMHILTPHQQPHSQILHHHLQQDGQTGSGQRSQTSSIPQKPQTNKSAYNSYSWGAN

[14] = target: proteins of HEK293T cells transiently overexpressing caspase-6 (Homo sapiens, UniProt P41250); conditions: exp_ref Probe; protein GARS (P41250); analysis C6
proteins of HEK293T cells transiently overexpressing caspase-6 (Homo sapiens, UniProt P41250), sequence (P41250 37-739): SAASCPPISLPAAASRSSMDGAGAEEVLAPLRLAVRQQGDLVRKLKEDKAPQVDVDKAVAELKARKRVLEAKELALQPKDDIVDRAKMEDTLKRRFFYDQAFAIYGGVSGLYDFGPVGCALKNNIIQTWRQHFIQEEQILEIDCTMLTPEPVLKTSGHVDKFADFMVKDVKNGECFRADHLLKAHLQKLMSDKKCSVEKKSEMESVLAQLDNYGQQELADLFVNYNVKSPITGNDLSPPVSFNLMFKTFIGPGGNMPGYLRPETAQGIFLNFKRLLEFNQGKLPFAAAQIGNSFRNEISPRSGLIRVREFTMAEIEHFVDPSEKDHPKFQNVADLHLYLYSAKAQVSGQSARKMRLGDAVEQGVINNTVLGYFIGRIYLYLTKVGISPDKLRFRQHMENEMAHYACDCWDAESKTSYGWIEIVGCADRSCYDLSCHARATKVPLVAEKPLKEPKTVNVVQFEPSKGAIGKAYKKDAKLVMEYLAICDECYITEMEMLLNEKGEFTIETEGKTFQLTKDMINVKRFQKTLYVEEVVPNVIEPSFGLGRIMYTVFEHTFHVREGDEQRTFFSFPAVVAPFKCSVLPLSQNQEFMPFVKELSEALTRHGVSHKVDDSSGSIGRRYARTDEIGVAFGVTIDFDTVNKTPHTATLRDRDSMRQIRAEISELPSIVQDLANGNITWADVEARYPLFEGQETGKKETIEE

[15] = target: proteins of HEK293T cells transiently overexpressing caspase-6 (Homo sapiens, UniProt Q9Y5B9); conditions: Probe; protein SUPT16H Q9Y5B9
proteins of HEK293T cells transiently overexpressing caspase-6 (Homo sapiens, UniProt Q9Y5B9), sequence (Q9Y5B9 whole entry): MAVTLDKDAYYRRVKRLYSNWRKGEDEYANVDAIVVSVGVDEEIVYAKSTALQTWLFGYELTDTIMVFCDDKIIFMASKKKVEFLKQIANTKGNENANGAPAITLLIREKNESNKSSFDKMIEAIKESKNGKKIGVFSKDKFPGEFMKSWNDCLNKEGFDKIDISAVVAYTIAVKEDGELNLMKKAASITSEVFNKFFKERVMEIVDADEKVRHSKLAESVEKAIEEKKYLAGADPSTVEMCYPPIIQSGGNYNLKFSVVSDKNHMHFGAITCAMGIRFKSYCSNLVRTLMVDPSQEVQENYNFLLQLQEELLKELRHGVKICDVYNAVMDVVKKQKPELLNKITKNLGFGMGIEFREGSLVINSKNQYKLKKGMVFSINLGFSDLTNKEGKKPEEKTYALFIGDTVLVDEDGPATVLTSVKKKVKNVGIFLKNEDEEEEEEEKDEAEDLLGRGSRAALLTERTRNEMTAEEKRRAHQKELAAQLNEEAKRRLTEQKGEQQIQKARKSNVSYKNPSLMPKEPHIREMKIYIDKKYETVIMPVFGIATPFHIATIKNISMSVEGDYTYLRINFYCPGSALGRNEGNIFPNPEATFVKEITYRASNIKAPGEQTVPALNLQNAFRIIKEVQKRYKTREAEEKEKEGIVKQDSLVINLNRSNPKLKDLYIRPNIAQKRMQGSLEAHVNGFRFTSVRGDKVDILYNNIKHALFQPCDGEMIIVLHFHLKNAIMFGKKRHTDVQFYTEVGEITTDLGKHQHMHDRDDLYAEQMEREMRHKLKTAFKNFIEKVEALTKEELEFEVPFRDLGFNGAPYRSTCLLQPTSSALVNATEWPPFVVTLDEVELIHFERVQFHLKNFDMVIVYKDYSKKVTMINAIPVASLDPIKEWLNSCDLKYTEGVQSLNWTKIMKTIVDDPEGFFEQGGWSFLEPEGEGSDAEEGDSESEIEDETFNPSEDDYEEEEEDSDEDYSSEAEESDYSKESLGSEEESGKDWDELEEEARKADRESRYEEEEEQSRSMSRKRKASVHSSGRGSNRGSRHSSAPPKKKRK

Compound: C#CCOc1ccc([C@@H]2C[C@@H](C(=O)Nc3ccc(OC(F)(F)F)cc3)CN(S(=O)(=O)C=C)C2)cc1 (relative stereo) [13-t]
- enrich.exp.med ([1]; Probe, protein PRDX4 Q13162): -1.846
- enrich.exp.med.lin ([1]; protein PRDX4 (Q13162)): 0.2781
- enrich.exp.med.log2 ([1]; protein PRDX4 (Q13162)): -1.846
- enrich.exp.med [2]: -0.06908
- enrich.exp.med [3]: 0.7591
- enrich.exp.med ([4]; Probe, protein DLD P09622): -1.39
- enrich.exp.med.lin ([4]; protein DLD (P09622)): 0.3817
- enrich.exp.med.log2 ([4]; protein DLD (P09622)): -1.39
- enrich.exp.med [5]: -1.112
- enrich.exp.med [6]: -1.169
- enrich.exp.med [7]: 0.8885
- enrich.exp.med [8]: -6.8
- enrich.exp.med ([9]; exp_ref Probe, analysis C6): 0.3732
- enrich.exp.med.lin [9]: 1.295
- enrich.exp.med.log2 [9]: 0.3732
- enrich.exp.med [10]: 0.2193
- enrich.exp.med ([11]; Probe, protein STIP1 P31948): -0.591
- enrich.exp.med.lin ([11]; protein STIP1 (P31948)): 0.6639
- enrich.exp.med.log2 ([11]; protein STIP1 (P31948)): -0.591
- enrich.exp.med [12]: -1.091
- enrich.exp.med [13]: -0.84
- enrich.exp.med [14]: 1.008
- enrich.exp.med [15]: -0.5962
